Source: ChEMBL document CHEMBL1201862, “PubChem BioAssay data set” (2004)
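1) Cells in 96-well plates. 2) Compound, 48 h, 5 concentrations. 3) Linear interpolation between surrounding doses. 4) Unreached endpoint = highest concentration. At the GI50, growth is halved.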 Active and inactive are the calls of the source. Cut-off read from the data, not from the text of the source: active = GI50 up to about 1.1 µM and inactive = higher.

What was measured:
Assay in all cases: NCI anticancer screen, dose series, 48 h
KM12 = tested on: KM12
OVCAR-5 = tested on: OVCAR-5
SNB-75 = tested on: SNB-75
MOLT-4 = tested on: MOLT-4
LOX IMVI = tested on: LOX IMVI
SK-OV-3 = tested on: SK-OV-3
COLO 205 = tested on: COLO 205
ACHN = tested on: ACHN
NCI-H460 = tested on: NCI-H460
BT-549 = tested on: BT-549
SNB-19 = tested on: SNB-19
UO-31 = tested on: UO-31
786-0 = tested on: 786-0
CCRF-CEM = tested on: CCRF-CEM
SN12C = tested on: SN12C
SF-295 = tested on: SF-295
MCF7 = tested on: MCF7
K562 = tested on: K562
CAKI-1 = tested on: CAKI-1
TK-10 = tested on: TK-10

| SMILES | GI50 (KM12) | GI50 (OVCAR-5) | GI50 (SNB-75) | GI50 (MOLT-4) | GI50 (LOX IMVI) | GI50 (SK-OV-3) | GI50 (COLO 205) | GI50 (ACHN) | GI50 (NCI-H460) | GI50 (BT-549) | GI50 (SNB-19) | GI50 (UO-31) | GI50 (786-0) | GI50 (CCRF-CEM) | GI50 (SN12C) | GI50 (SF-295) | GI50 (MCF7) | GI50 (K562) | GI50 (CAKI-1) | GI50 (TK-10) |
| --- | --- | --- | --- | --- | --- | --- | --- | --- | --- | --- | --- | --- | --- | --- | --- | --- | --- | --- | --- | --- |
| CCCCCCCCCCCCCCCCCCOc1ccc(/C=C/C2=[N+](CCCl)CCO2)cc1 | > 100 µM (inactive) | 95.7 µM (inactive) | 3.54 µM (inactive) | > 100 µM (inactive) | > 100 µM (inactive) | > 100 µM (inactive) | 70.1 µM (inactive) | > 100 µM (inactive) | > 100 µM (inactive) | > 100 µM (inactive) | > 100 µM (inactive) | > 100 µM (inactive) | > 100 µM (inactive) | > 100 µM (inactive) | > 100 µM (inactive) | > 100 µM (inactive) | > 100 µM (inactive) | > 100 µM (inactive) | > 100 µM (inactive) | > 100 µM (inactive) |
| Nc1c2cc3ccc2nc2ccc(cc12)OCCOCCOCCOCCOCCOCCO3 | > 10 µM (inactive) | > 10 µM (inactive) | > 10 µM (inactive) | > 10 µM (inactive) | > 10 µM (inactive) | > 10 µM (inactive) | > 10 µM (inactive) | > 10 µM (inactive) | > 10 µM (inactive) | > 10 µM (inactive) | > 10 µM (inactive) |  | > 10 µM (inactive) | > 10 µM (inactive) | > 10 µM (inactive) | > 10 µM (inactive) | > 10 µM (inactive) | > 10 µM (inactive) | > 10 µM (inactive) | > 10 µM (inactive) |
| CCCCN(CCCC)CC(=O)c1ccc2cc(Cl)c3ccccc3c2c1 | 32 µM (inactive) | 51.1 µM (inactive) | 29.8 µM (inactive) | 31.5 µM (inactive) | 23.4 µM (inactive) | 31 µM (inactive) | 14.9 µM (inactive) | 20.4 µM (inactive) | 18.3 µM (inactive) | 19.1 µM (inactive) | 33.7 µM (inactive) | 20.6 µM (inactive) | 57.4 µM (inactive) | > 100 µM (inactive) | 50.7 µM (inactive) | 31 µM (inactive) | 30.1 µM (inactive) | 24.9 µM (inactive) | 29.5 µM (inactive) | 50 µM (inactive) |
| CCCCCCCCCC[C@H](O)[C@H]1CC[C@H]([C@H]2CC[C@H]([C@H](O)CC[C@H](O)CCCCCCC[C@@H](O)CC3=C[C@H](C)OC3=O)O2)O1 | 9.14 µM (inactive) | > 10 µM (inactive) | 19.1 µM (inactive) | 2.96 µM (inactive) | 7.46 µM (inactive) |  | 12.2 µM (inactive) | 1.6 µM (inactive) | 1.46 µM (inactive) | 68.1 µM (inactive) | 17 µM (inactive) | 2.02 µM (inactive) | 25.1 µM (inactive) | 3.6 µM (inactive) | 91.4 µM (inactive) | 1.66 µM (inactive) | 1.52 µM (inactive) | 2.96 µM (inactive) | 57 µM (inactive) | 31 µM (inactive) |
| Cc1cn([C@@H]2C[C@](C)(CO)N(C)O2)c(=O)[nH]c1=O | > 100 µM (inactive) | > 100 µM (inactive) | 8.53 µM (inactive) |  | > 100 µM (inactive) | > 100 µM (inactive) | > 100 µM (inactive) | > 100 µM (inactive) | > 100 µM (inactive) | > 100 µM (inactive) | > 100 µM (inactive) | > 100 µM (inactive) | > 100 µM (inactive) | > 100 µM (inactive) | > 100 µM (inactive) | > 100 µM (inactive) | > 100 µM (inactive) | > 100 µM (inactive) | > 100 µM (inactive) | > 100 µM (inactive) |
| CCOc1cc2c(cc1O)/C(=N/NS(=O)(=O)c1ccc(C)cc1)C[C@@H]1[C@@H]2CC[C@]2(C)[C@@H](O)CC[C@@H]12 | 4.22 µM (inactive) | 21 µM (inactive) | 5.3 µM (inactive) | 1.92 µM (inactive) | 8.43 µM (inactive) | 10.5 µM (inactive) | 3.36 µM (inactive) | 10.5 µM (inactive) | 4.65 µM (inactive) | 3.7 µM (inactive) | 8.79 µM (inactive) | 4.2 µM (inactive) | 9.73 µM (inactive) | 3.79 µM (inactive) |  | 3.15 µM (inactive) | 4.02 µM (inactive) | 1.02 µM (active) | 12.6 µM (inactive) | 51.1 µM (inactive) |
| CC(C(=O)NCNC(=O)c1ccccc1)C(=O)Nc1ccccc1 (stereo not drawn) | > 100 µM (inactive) | > 100 µM (inactive) | > 100 µM (inactive) | > 10 µM (inactive) |  | > 100 µM (inactive) | > 100 µM (inactive) | > 100 µM (inactive) | > 100 µM (inactive) | > 100 µM (inactive) | > 100 µM (inactive) | > 100 µM (inactive) | > 100 µM (inactive) | > 100 µM (inactive) | > 100 µM (inactive) | > 100 µM (inactive) | > 100 µM (inactive) |  | > 100 µM (inactive) | > 100 µM (inactive) |
| C[C@]12Cc3cnn(-c4ccc(F)cc4)c3NC1CC[C@@H]1C2CC[C@@]2(C)C1CC[C@@H]2O (stereo partly drawn) | 4.95 µM (inactive) | 12.7 µM (inactive) | 2.76 µM (inactive) | 2.5 µM (inactive) |  | 11.7 µM (inactive) | 2.94 µM (inactive) | 2.31 µM (inactive) | 3.65 µM (inactive) | 3.14 µM (inactive) | 15.5 µM (inactive) | 8.61 µM (inactive) | 2.68 µM (inactive) | 6.92 µM (inactive) | 13.2 µM (inactive) | 1.62 µM (inactive) | 4.32 µM (inactive) | 2.94 µM (inactive) | 15.5 µM (inactive) | 7.71 µM (inactive) |
| C=C(C)[C@@H]1CC[C@]2(CO)CC[C@]3(C)[C@H](CC[C@@H]4[C@@]5(C)CC[C@H](O)C(C)(C)[C@@H]5CC[C@]43C)[C@@H]12 [BETULIN] | 9.71 µM (inactive) | 55.7 µM (inactive) | 12.7 µM (inactive) | 32.4 µM (inactive) | 14.6 µM (inactive) |  |  | 11.1 µM (inactive) | 19.3 µM (inactive) | 17.6 µM (inactive) | > 10 µM (inactive) | 11.1 µM (inactive) | 13.6 µM (inactive) | 34.5 µM (inactive) | 24.8 µM (inactive) | 14 µM (inactive) | 19.9 µM (inactive) | 15.8 µM (inactive) | 15.3 µM (inactive) | 17.1 µM (inactive) |
| O=c1[nH]c2ccc(CC(=S)N3CCN(c4ccccc4)CC3)cc2s1 | 26.2 µM (inactive) | 15.7 µM (inactive) |  | 16.5 µM (inactive) | 67 µM (inactive) | 15.7 µM (inactive) | 57.1 µM (inactive) | 18 µM (inactive) | 13 µM (inactive) | 26.6 µM (inactive) | > 100 µM (inactive) | 0.063 µM (active) | 34.4 µM (inactive) | 68.9 µM (inactive) | 70.6 µM (inactive) | 12.9 µM (inactive) | 92 µM (inactive) | 48.2 µM (inactive) | 77.1 µM (inactive) | 36.6 µM (inactive) |
| COc1cc(/C=C2\CCC(C)/C(=C\c3cc(OC)c(OC)c(OC)c3)C2=O)cc(OC)c1OC (stereo not drawn) | 2.61 µM (inactive) | 3.38 µM (inactive) | 18.2 µM (inactive) |  | 3.27 µM (inactive) | 10.5 µM (inactive) | 2.48 µM (inactive) | 3.02 µM (inactive) |  | 1.02 µM (active) | 4.51 µM (inactive) | 3.99 µM (inactive) | 3.75 µM (inactive) | 1.29 µM (inactive) | 3.56 µM (inactive) |  | 2.89 µM (inactive) | 2.69 µM (inactive) | 2.99 µM (inactive) | 2.63 µM (inactive) |
| COc1cccc(N2C(=O)C3c4[nH]c5ccccc5c4C4CCCC4C3C2=O)c1 (stereo not drawn) | > 10 µM (inactive) | > 10 µM (inactive) | 2.24 µM (inactive) | > 10 µM (inactive) | 5.38 µM (inactive) | 6.64 µM (inactive) | > 10 µM (inactive) | 5.93 µM (inactive) | 4.26 µM (inactive) | > 10 µM (inactive) | 5.81 µM (inactive) |  | 2.14 µM (inactive) | > 10 µM (inactive) | 3.01 µM (inactive) | > 10 µM (inactive) | > 10 µM (inactive) | > 10 µM (inactive) | 7.16 µM (inactive) | > 10 µM (inactive) |
| C=CCCC1(CCP(=O)(c2ccccc2)c2ccccc2)OCCO1 | > 100 µM (inactive) | > 100 µM (inactive) | > 100 µM (inactive) | > 100 µM (inactive) | > 100 µM (inactive) |  | > 100 µM (inactive) | > 100 µM (inactive) | > 100 µM (inactive) | > 100 µM (inactive) | > 100 µM (inactive) | > 100 µM (inactive) | > 100 µM (inactive) | > 100 µM (inactive) | > 100 µM (inactive) | > 100 µM (inactive) | > 100 µM (inactive) | > 100 µM (inactive) |  | > 100 µM (inactive) |
| Cc1[nH]n(-c2nc(O)c(-c3ccccc3)c(=O)[nH]2)c(=O)c1CCO | > 100 µM (inactive) | > 100 µM (inactive) | 54.5 µM (inactive) | > 100 µM (inactive) |  | > 100 µM (inactive) | > 100 µM (inactive) | > 100 µM (inactive) | > 100 µM (inactive) | > 100 µM (inactive) | > 100 µM (inactive) | > 100 µM (inactive) | > 100 µM (inactive) | > 100 µM (inactive) | > 100 µM (inactive) | > 100 µM (inactive) | > 100 µM (inactive) | > 100 µM (inactive) | > 100 µM (inactive) | > 100 µM (inactive) |
